Measurements published in patent US20250186436A1 (4E Therapeutics, Inc., priority 2021, published 2025).
pIC50: −log10 of the molar value. Like-named read-outs stand apart in the source and are kept apart here.

Key:
[1] = PK study in CD-1 male mice with IV and PO dosing (Example 3); type: in vivo; settings: for AUC(0-t): AUClast; for concentration at 24 h: Clast; for MRT inf: MRTinf
Description: Example 3: PK study of 4ET-03-053 in CD-1 male mice with IV and PO dosing
In mice, following IV administration with 1.5 mg/kg, plasma concentrations declined in a multiphasic manner with an initial concentration (Co) of 708 ng/mL and a last measurable concentration (Clast) of 5.29 ng/mL at 24 h post dose.

[2] = tested on: Wistar rats; experiment: Intravenous self-administration with oxycodone and saline regimen; type: in vivo; settings: rat, in vivo
Description: Ten male and eleven female Wistar rats (Charles River, Hollister, CA) were used in this study. Rats were housed in groups of 2-3 per cage prior to surgery, and then individually housed to protect their catheters, in a temperature-controlled (22° C.) vivarium on a 12/12h light/dark cycle (lights off at 8:00 AM) with ad libitum access to food and water. The rats acclimated to the animal facility for at least 7 days before surgery. All procedures adhered to the National Institutes of Health Guide for the Care and Use of Laboratory Animals and were approved by the Institutional Animal Care and Use Committee of The Scripps Research Institute.
For surgery, rats were anesthetized with 2 to 3% isoflurane. They were implanted with a silastic catheter (0.3 mm i.d.×0.64 mm o.d.; Dow Corning Co. Midland, MI) into the right external jugular vein under aseptic conditions. The distal end of the catheter was subcutaneously threaded to the back of the rat where it exited via a metal guide cannula (22G; Plastics One Inc., Roanoke, VA) that was anchored at the back of the rat and closed with a small plastic cap and metal cover cap to keep the inside part of the catheter clean and protected (Caine S B, et al. “Effects of dopamine D-1 and D-2 antagonists on cocaine self-administration under different schedules of reinforcement in the rat” J Pharmacol Exp Ther. 270(1):209-18 (1994); Wee S, et al. “Effects of dose and session duration on cocaine self-administration in rats” J Pharmacol Exp Ther. 320(3):1134-43 (2007); Zorrilla E P, et al. “Extended access cocaine self-administration differentially activates dorsal raphe and amygdala corticotropin-releasing factor systems in rats” Addict Biol. 17(2):300-8 (2012); Valtcheva M V, et al. “Surgical extraction of human dorsal root ganglia from organ donors and preparation of primary sensory neuron cultures” Nat Protoc. 11:1877-1888 (2016)). All incisions were closed using veterinary tissue adhesive. After surgery, rats were given analgesic (Flunixin, 2.5 mg/kg s.c.).
Rats were allowed 5-7 days for recovery prior to self-administration.
The patency of catheters in the rats was tested using an ultra-short-acting barbiturate methohexital sodium (Brevital, Eli Lilly, Indianapolis, 1N, 10 mg/mL, 2 mg/rat) every 10-12 days during the study. Generally, a total loss of muscle tone within 3 s after a methohexital sodium injection indicates the patency of a catheter. Any animal that failed the test was excluded from the study.
During experimental sessions, each rat was placed in a standard operant chamber, which was placed in a light- and sound-attenuating cubicle (28×26×20 cm; Med Associates Inc., St. Albans, VT). The front door and the back wall of the chamber were made of transparent plastic, and the other walls were opaque metal. The chamber had two retractable response levers mounted on one side of the opaque walls. A stimulus light was mounted above each lever. A drug injection was delivered by a syringe pump (Razel Scientific Instruments, Georgia, VT) located on top of the cubicle. Experimental sessions were controlled and recorded by a PC computer with custom interface and software in the experimental room.
Experimental sessions were conducted once a day, 5-7 days a week during the dark (active) cycle. After being flushed with 0.9% saline, a rat's indwelling catheter was connected to a tube that exited the chamber through a metal spring and a swivel and was connected to a syringe pump. After the drug delivery system was connected to the rat, the chamber was closed, and the 2 hr session was started immediately. The start of a session was signaled by the presentation of two response levers into the chamber. […] During an injection, stimulus lights above both levers were illuminated and lasted throughout a time-out period (20 s) that followed each injection. Pressing the left lever was counted but had no other programmed consequences. […]

[3] = tested on: eIF4E phosphorylation at Serine 209 in HEK 293 cells; experiment: eIF4E phosphorylation in HEK 293 cells (phospho-specific antibody, fluorescent plate reader); type: cell-based; settings: Homo sapiens, HEK293; eIF4E phosphorylation at Serine 209, 2 hours exposure; read-out: HEK 293 cell;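 note: Well-level p-eIF4E immunofluorescence normalized to DAPI signal, expressed as percent eIF4E phosphorylation, with IC50 derived from concentration-response curves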
[4] = male, CD-1, mouse, in vivo, iv, 1.5 mg/kg
[5] = male, CD-1, mouse, in vivo, po, 10 mg/kg

Cc1cc(Nc2cc(N)ncn2)c(=O)n2c1C(=O)NC21CCC2(CC2)CC1 [4ET-03-053, 6″-((6-Aminopyrimidin-4-yl)amino)-8″-methyl-2″H-dispiro[cyclopropane-1,1′-cyclohexane-4′,3″-imidazo[1,5-a]pyridine]-1″,5″-dione]
F ([1]; CD-1 male mice, 10 mg/kg PO, individual animals, 10 mg/kg): 75.6%
clinical observation after dosing [1, 4]: lying on side and immobile with heavy breathing for about 1 min
AUC(0-inf) ([1]; male, CD-1, mouse, in vivo, iv, 1.5 mg/kg, AUCinf): 1530 ng·h/mL
AUC(0-t) [1, 4]: 1300 ng·h/mL
clearance ([1]; male, CD-1, mouse, in vivo, iv, 1.5 mg/kg, CLp): 19.3 mL/min/kg
concentration at 24 h [1, 4]: 5.29 ng/mL
MRT inf [1, 4]: 4.93 h
Vd ([1]; male, CD-1, mouse, in vivo, iv, 1.5 mg/kg, Vss): 5.63 L/kg
half-life ([1]; male, CD-1, mouse, in vivo, iv, 1.5 mg/kg, t1/2): 6.17 h
AUC(0-inf) ([1]; male, CD-1, mouse, in vivo, iv, 1.5 mg/kg, total systemic exposure (AUCinf)): 1320 ng·h/mL
Tmax [1, 5]: 0.5 h
bioavailability [1, 5]: 75%
time to mean peak plasma concentration [1, 5]: ≤ 30 min
AUC(0-inf) ([1]; male, CD-1, mouse, in vivo, po, 10 mg/kg, AUCinf): 6670 ng·h/mL
AUC(0-t) [1, 5]: 6420 ng·h/mL
concentration at 24 h [1, 5]: 33.2 ng/mL
Cmax ([1]; male, CD-1, mouse, in vivo, po, 10 mg/kg, Cmax): 807 ng/mL
MRT inf [1, 5]: 6.7 h
half-life ([1]; male, CD-1, mouse, in vivo, po, 10 mg/kg, t1/2): 5.14 h
AUC(0-inf) ([1]; male, CD-1, mouse, in vivo, po, 10 mg/kg, total systemic exposure (AUCinf)): 6620 ng·h/mL
clinical observation after dosing ([1]; mice, slow IV injection at 3 mg/kg, first animal): died immediately after a slow IV injection
half-life ([1]; mouse, in vivo, CD-1 male mice, 10 mg/kg PO, individual animals, read-out: t1/2 (converted)): 5.11 h
Mean Difference, Šídák's multiple comparisons test [2]: 1.500
Summary, Šídák's multiple comparisons test [2]: ns
addictive potential [2]: negligible addictive potential
numbers of infusions, multiple comparisons test: 0.05 mg/kg 4ET-03-053 and subsequent oxycodone [2]: significant differences
numbers of infusions, multiple comparisons test: 0.1 mg/kg 4ET-03-053 and the final oxycodone test [2]: significant differences
Mean Difference, Šídák's multiple comparisons test ([2]; 0.05 mg/kg): −8.041
Summary, Šídák's multiple comparisons test ([2]; 0.05 mg/kg): ns
Mean Difference, Šídák's multiple comparisons test ([2]; 0.15 mg/kg): 5.441
Summary, Šídák's multiple comparisons test ([2]; 0.15 mg/kg): ns
pIC50 [3]: 8.00
